Results taken from patent publication US20070093520A1, “Method of treatment of diarrhea-predominant irritable bowel syndrome in a subject” (priority 2005, published 2007).
Read-outs that look alike come from different tables or passages of the source.

Test system: diarrhea-predominant IBS subjects
Format: in vivo, human
Settings: for Number of subjects who died / Primary reason for withdrawal: Adverse event and lack of efficacy / Primary reason for withdrawal: Baseline complaint/adverse event: 2 mg TID
Description: The study was performed in approximately 150 study centers. Approximately 1600 eligible subjects were to be given cilansetron 2 mg TID. At Visit 1, pre-treatment assessments were conducted. […] Subjects were to return to the study site one month later for Visit 3 (Day 31) for their first interim assessment. […] All subjects who discontinued from the study were to have the same post-study assessments required at Visit 7 performed at their early termination visit. […]
Stool specimens were analyzed at every visit for occult blood. An independent GERB had been established to provide advice on GI AEs during the course of the study.
Adverse events were assessed at Baseline, at each clinic visit, and at the end of the study (Month 12 or the early termination visit). All AEs, which occurred during the study were followed up in accordance with good medical practice until resolved or judged no longer clinically significant, or if a condition was chronic, until fully characterized. Adverse events could occur in the specified follow-up period and, regardless of the interval since the last administration of the study medication, were treated in the same manner as an AE which occurred during the treatment with study medication. Each AE was evaluated for duration, severity, seriousness, and causal relationship to the investigational drug. The action taken and the outcome were also recorded.
Specifically, subjects who were lost to follow-up and had no post-Baseline contact with the site were excluded from the Safety population. The subjects who discontinued from the study due to lost to follow-up were identified based on the information collected on the study termination CRF page.
After the pretreatment assessment at Visit 1 (Days […] to −3), subjects were to return to the study site for a Baseline assessment and start the treatment at Visit 2 (Day 1).
For the by time-interval analyses of disposition, prevalence of AEs, and of markedly abnormal and predefined changes in laboratory values, vital signs, and ECGs, the following interval windows were used:
Adverse events that were already present prior to the first dose of cilansetron study medication but increased in severity afterwards were considered as treatment-emergent.
The 5% cutoff point was based on the incidence within higher level terms.
Subjects were counted at most once for each primary system organ class and preferred term. Serious AEs that resolved prior to receiving study medication or occurred more than 30 days after the last dose of study medication were not included in the incidence tables. A listing of all SAEs is presented; SAEs with onset prior to receiving study medication or more than 30 days after discontinuation of study medication were flagged. The listing presents lower level term and preferred term of the SAE, severity, action taken, outcome, and relationship of the SAE, start and stop date of the SAE, study day of onset of the SAE, age, race, and sex.

[1] = Cilansetron 2 mg, N=1454, % of appropriate gender
[2] = Study 3008, 2 mg TID (N = 1454)
[3] = Study 3008, of subjects who received study medication
[4] = TEAE incidence, 2 mg, Safety Population, HLT

SMILES: Cc1nccn1C[C@H]1CCc2c(c3cccc4c3n2CCC4)C1=O [cilansetron, (R)-(−)-4,5,6,8,9,10-hexahydro-10-[(2-methyl-1H-imidazol-1-yl)methyl]-11H-pyrido-[3,2,1-jk]-carbazol-11-one]
- TEAE incidence: Transient Cerebrovascular Events (Cilansetron 2 mg, N=1454): 1 (<1%) n (%)
- TEAE incidence: Transient Global Amnesia (Cilansetron 2 mg, N=1454): 1 (<1%) n (%)
- TEAE incidence: Transient Ischaemic Attack (Cilansetron 2 mg, N=1454): 1 (<1%) n (%)
- TEAE incidence: Tremor (Cilansetron 2 mg, N=1454): 2 (<1%) n (%)
- TEAE incidence: Tremor (Excl Congenital) (Cilansetron 2 mg, N=1454): 2 (<1%) n (%)
- TEAE incidence: Triglyceride Analyses (Cilansetron 2 mg, N=1454): 11 (<1%) n (%)
- TEAE incidence: Urethritis Non-Specific (Cilansetron 2 mg, N=1454): 1 (<1%) n (%)
- TEAE incidence: Urinalysis NEC (Cilansetron 2 mg, N=1454): 20 (1%) n (%)
- TEAE incidence: Urine Bilirubin Increased (Cilansetron 2 mg, N=1454): 2 (<1%) n (%)
- TEAE incidence: Urine Ketone Body Present (Cilansetron 2 mg, N=1454): 2 (<1%) n (%)
- TEAE incidence: Vascular Tests NEC (Incl Blood Pressure) (Cilansetron 2 mg, N=1454): 7 (<1%) n (%)
- TEAE incidence: Vasovagal Attack (Cilansetron 2 mg, N=1454): 1 (<1%) n (%)
- TEAE incidence: Viraemia NOS Present (Cilansetron 2 mg, N=1454): 3 (<1%) n (%)
- TEAE incidence: Vitamin Analyses (Cilansetron 2 mg, N=1454): 1 (<1%) n (%)
- TEAE incidence: Vitamin B12 Decreased (Cilansetron 2 mg, N=1454): 1 (<1%) n (%)
- TEAE incidence: Vomiting NOS (Cilansetron 2 mg, N=1454): 25 (2%) n (%)
- TEAE incidence: Weight Decreased (Cilansetron 2 mg, N=1454): 3 (<1%) n (%)
- TEAE incidence: Weight Increased (Cilansetron 2 mg, N=1454): 13 (<1%) n (%)
- TEAE incidence: White Blood Cell Analyses (Cilansetron 2 mg, N=1454): 25 (2%) n (%)
- TEAE incidence: White Blood Cell Count Decreased (Cilansetron 2 mg, N=1454): 4 (<1%) n (%)
- TEAE incidence: White Blood Cell Count Increased (Cilansetron 2 mg, N=1454): 1 (<1%) n (%)
- TEAE incidence: White Blood Cells Urine (Cilansetron 2 mg, N=1454): 3 (<1%) n (%)
- TEAE incidence: White Blood Cells Urine Positive (Cilansetron 2 mg, N=1454): 2 (<1%) n (%)
- TEAE incidence: abdominal pain NOS (Cilansetron 2 mg, N=1454): 156 (11%) n (%)
- TEAE incidence: back pain (Cilansetron 2 mg, N=1454): 40 (3%) n (%)
- TEAE incidence: constipation (Cilansetron 2 mg, N=1454): 222 (15%) n (%)
- TEAE incidence: flatulence (Cilansetron 2 mg, N=1454): 38 (3%) n (%)
- TEAE incidence: flatulence, bloating and distension (Cilansetron 2 mg, N=1454): 91 (6%) n (%)
- TEAE incidence: headache NOS (Cilansetron 2 mg, N=1454): 100 (7%) n (%)
- TEAE incidence: nasopharyngitis (Cilansetron 2 mg, N=1454): 44 (3%) n (%)
- TEAE incidence: nausea (Cilansetron 2 mg, N=1454): 78 (5%) n (%)
- TEAE incidence: nausea and vomiting symptoms (Cilansetron 2 mg, N=1454): 92 (6%) n (%)
- TEAE incidence: sinusitis NOS (Cilansetron 2 mg, N=1454): 25 (2%) n (%)
- Total Number of Subjects with at Least One TEAE (Cilansetron 2 mg, N=1454): 931 (64%) n (%)
- TEAE incidence: Female Reproductive Tract Infections* [1]: 4 (<1%) n (%)
- TEAE incidence: Oophoritis* [1]: 1 (<1%) n (%)
- TEAE incidence: Pelvic Inflammatory Disease NOS* [1]: 1 (<1%) n (%)
- TEAE incidence: Vaginal Candidiasis* [1]: 5 (<1%) n (%)
- TEAE incidence: Vaginitis* [1]: 2 (<1%) n (%)
- TEAE incidence: Vulvovaginitis Trichomonal* [1]: 1 (<1%) n (%)
- TEAEs that led to dose reduction (Study 3008): 2%
- TEAEs that led to permanent discontinuation of study medication (Study 3008): Thirteen
- overall incidence of TEAEs possibly, probably, or unlikely related to study medication (Study 3008): 42%
- severe TEAEs (Study 3008): 9%
- special interest TEAEs (Study 3008): 54%
- subjects with a treatment emergent SAE (Study 3008): Six
- subjects with at least one TEAE (Study 3008): Sixty-four
- withdrawal for AEs (combined categories) (Study 3008): 13%
- withdrawal for lack of efficacy (combined categories) (Study 3008): 12%
- Number of subjects who died (Study 3008): 1 n
- Primary reason for withdrawal: Adverse event and lack of efficacy (Study 3008): 119 n
- Primary reason for withdrawal: Baseline complaint/adverse event (Study 3008): 75 n
- Number of deaths [2]: 1 (<1) n (%)
- Number of subjects who permanently discontinued study medication due to a TEAE [2]: 192 (13) n (%)
- Number of subjects with at least one AE of special interest [2]: 789 (54) n (%)
- Number of subjects with at least one SAE [2]: 85 (6) n (%)
- Number of subjects with at least one TEAE [2]: 931 (64) n (%)
- Number of subjects with at least one TEAE leading to dose reduction [2]: 34 (2) n (%)
- Number of subjects with at least one related TEAE [2]: 604 (42) n (%)
- Number of subjects with at least one severe TEAE [2]: 138 (9) n (%)
- Number of subjects who died [3]: (<1) %
- Primary reason for withdrawal: Adverse event and lack of efficacy [3]: (8) %
- Primary reason for withdrawal: Baseline complaint/adverse event [3]: (5) %
- Acnes [4]: 2 (<1%) n (%)
- Affect Alterations NEC [4]: 2 (<1%) n (%)
- Alopecias [4]: 6 (<1%) n (%)
- Anxiety Disorders NEC (Incl Obsessive Compulsive Disorder) [4]: 1 (<1%) n (%)
- Anxiety Symptoms [4]: 26 (2%) n (%)
- Apocrine and Eccrine Gland Disorders [4]: 8 (<1%) n (%)
- Appetite Disorders [4]: 15 (1%) n (%)
- Arthropathies NEC [4]: 6 (<1%) n (%)
- Asthenic Conditions [4]: 38 (3%) n (%)
- Benign and Malignant Breast Neoplasms* [4]: 2 (<1%) n (%)
- Bladder Disorders NEC [4]: 1 (<1%) n (%)
- Bladder and Urethral Symptoms [4]: 18 (1%) n (%)
- Breast Disorders NEC* [4]: 1 (<1%) n (%)
- Breast Signs and Symptoms* [4]: 4 (<1%) n (%)
- Breathing Abnormalities [4]: 7 (<1%) n (%)
- Bronchospasm and Obstruction [4]: 10 (<1%) n (%)
- Bursal Disorders [4]: 1 (<1%) n (%)
- Cardiac Conduction Disorders [4]: 4 (<1%) n (%)
- Cardiac Signs and Symptoms NEC [4]: 5 (<1%) n (%)
- Cartilage Disorders [4]: 1 (<1%) n (%)
- Cervix Disorders NEC* [4]: 1 (<1%) n (%)
- Chest and Lung Injuries NEC [4]: 1 (<1%) n (%)
- Connective Tissue Disorders (Excl Le) [4]: 1 (<1%) n (%)
- Coronary Artery Disorders NEC [4]: 2 (<1%) n (%)
- Coughing and Associated Symptoms [4]: 28 (2%) n (%)
- Depressive Disorders [4]: 28 (2%) n (%)
- Dermal and Epidermal Conditions NEC [4]: 4 (<1%) n (%)
- Dermatitis and Eczema [4]: 16 (1%) n (%)
- Diabetes Mellitus (Incl Subtypes) [4]: 4 (<1%) n (%)
- Dissociative States [4]: 1 (<1%) n (%)
- Disturbances in Initiating and Maintaining Sleep [4]: 20 (1%) n (%)
- Elevated Cholesterol [4]: 9 (<1%) n (%)
- Elevated Triglycerides [4]: 8 (<1%) n (%)
- Erection and Ejaculation Conditions and Disorders* [4]: 2 (<1%) n (%)
- Erythemas [4]: 1 (<1%) n (%)
- Extremity Deformities [4]: 1 (<1%) n (%)
- Eye Injuries NEC [4]: 1 (<1%) n (%)
- Fear Symptoms [4]: 1 (<1%) n (%)
- Febrile Disorders [4]: 20 (1%) n (%)
- Fluctuating Mood Symptoms [4]: 2 (<1%) n (%)
- Food Malabsorption and Intolerance Syndromes (Excl Sugar Intolerance) [4]: 1 (<1%) n (%)
- General Nutritional Disorders NEC [4]: 3 (<1%) n (%)
- General Signs and Symptoms NEC [4]: 14 (<1%) n (%)
- Heart Failure Signs and Symptoms [4]: 1 (<1%) n (%)
- Hyperglycaemic Conditions NEC [4]: 4 (<1%) n (%)
- Hyperlipidaemias NEC [4]: 3 (<1%) n (%)
- Increased Physical Activity Levels [4]: 1 (<1%) n (%)
- Intervertebral Disc Disorders NEC [4]: 3 (<1%) n (%)
- Ischaemic Coronary Artery Disorders [4]: 7 (<1%) n (%)
- Joint Related Signs and Symptoms [4]: 31 (2%) n (%)
